The values that follow come from patent US20250339399A1, “SUPRAMOLECULAR SELF-ASSEMBLY SYSTEM” (Beijing Creatron Institute of Pharmaceutical Research Co., …, priority 2022, published 2025).

Where a name gives a salt, the structure may show the parent alone.

Data set [1] can be described thus: Binary (carrier), ternary and quaternary supramolecular self-assembly systems of polymer, carrier building block and target: guest concentration over incubation time (Examples 1-56). Format: physicochemical. The settings on record: for Times that of the initial medium / Concentration of guest molecule in solution: 6 h. Here is the method: (§1) pH 2.0 hydrochloric acid, pH 4.5 acetate, and pH 6.5, pH 6.8, or pH 7.4 phosphate buffer solutions were prepared. The selection of each initial medium followed the principle that the solubility in the initial medium of the selected targets (or active ingredients) should low enough, but should meet the detection sensitivity and accuracy requirements of the corresponding analytical methods. Each buffer as initial media was placed in a 50 ml test tube with a stopper, shaken in a constant temperature air shaker at 37° C.±0.5° C., with an amplitude of 200 rpm, and incubated for 1 hour. […] Samples were taken at 0.5 h, 3 h and 6 h after incubation, centrifuged at 37° C., 13000 rpm for 5 minutes, and the supernatant was diluted at least 10 times with the mobile phase under the target analyte analytical method, filtered, the initial filtrate was discarded, and the continued filtrate was used as the test solution for injection analysis. The corresponding HPLC method under each target object item in Table 8 was used to determine the content of each target substance. When the solubility of the target in the initial medium is below the quantitative limit of the analytical method, a small amount of surfactant, such as sodium dodecyl sulfate (SDS), Tween20, or Tween80, can be added appropriately.
Experiments were conducted according to the steps in Comparative Example 1, and quantitative analysis was carried out using the analytical method for each target to investigate the regulation ability of each binary supramolecular self-assembly system built from 0.5% polymer and target on guest molecules stacking.
Ternary supramolecular self-assembly systems based on different polymers, carrier building blocks, and targets were built according to the experimental scheme in Table 12, to investigate the influence of synergistic regulation of the carrier building blocks and the polymers on the stacking of target molecules, as well as the stability of the supramolecular self-assembly systems jointly built by them over incubation time. The initial medium, quantitative analysis method, pre-treatment method, and initial theoretical concentration of the target, corresponding to each target molecule in the experiment, were consistent with those in Comparative Examples 1 and 2. After a target was added to the system, the target was uniformly dispersed by ultrasonication at 37° C. for half an hour and then shaken in a 37° C. constant temperature air shaker, and samples were collected after different incubation time, i.e. 0.5 h, 1 h, 2 h, 3 h, 4 h, and 6 h.

The conditions of data set [2]: Cannabidiol derivatives, cited from earlier work; for Log P: Table 30 (chemical structures).
Data set [3] can be described thus: Guest molecule concentration after incubation in initial medium without polymer (Comparative Example 1). Format: physicochemical. The settings on record: for Concentration of guest molecule measured after different incubated time: 37° C.; for Concentration of guest molecule in solution: initial medium. The protocol: as §1
The above targets were incubated at 37° C.±0.5° C. for different time in an initial medium without any polymer. Each solid target formed by molecular stacking was removed by centrifugation, and the supernatant was analyzed using the HPLC method under each target item (see Table 8). The theoretical addition concentration of each target when its supramolecular self-assembly system was built was determined by its maximum dose in clinical use.

The nature of data set [4]: Binary supramolecular self-assembly systems of polymer and target: guest concentration over incubation time (Comparative Example 2). Format: physicochemical. The settings on record: for Concentration of guest molecule in solution / Times that of the initial medium: 6 h. The protocol:
Experiments were conducted according to the steps in Comparative Example 1, and quantitative analysis was carried out using the analytical method for each target to investigate the regulation ability […] stacking.

[5] abbreviates: binary system with 0.5% polymer 102, incubation 0.5 h.
The mark [6] stands for this setting: binary system with 0.5% polymer 102, incubation 3 h.
Setting [7] is: binary system with 0.5% polymer 102, incubation 6 h.
Where [8] appears, read: ternary: 0.25% 102M + 0.25% 301.
[9] abbreviates: ternary: 0.25% 102M + 0.25% 302.

As to `CC(=O)CC(c1ccccc1)c1c(O)c2ccccc2oc1=O` (centres unmarked) [Warfarin], the “Encapsulation rate for the guest molecule” value in data set [1] (quaternary: 0.25% 207 (101+103E5) + 0.1% 320) is on record as about 100%.
On to `C=C(C)[C@@H]1CCC(CO)=C[C@H]1c1c(O)cc(CCCCC)cc1O` [compound 11, ((1′R,2′R)-5′-(hydroxymethyl)-4-pentyl-2′-(prop-1-en-2-yl)-1′,2′,3′,4′-tetrahydro-[1,1′-biphenyl]-2,6-diol)], for which the “Log P” value in data set [2] is given as “Log P = 5.04 H-D:3,H-R = 3”.
`C=C(C)[C@@H]1CCC(C)=C[C@H]1c1c(O)cc(CCCCC)cc1OCC(=O)O` [compound 50]: in data set [2], the “Log P” value is recorded as “Log P = 5.95 H-D:2,H-R = 4”.
Regarding `C=C(C)[C@@H]1CCC(C)=C[C@H]1c1c(O)cc(CCCCC)c(C(=O)O)c1O` [compound 5, ((1′R,2′R)-2,6-dihydroxy-5′-methyl-4-pentyl-2′-(prop-1-en-2-yl)-1′,2′,3′,4′-tetrahydro-[1,1′-biphenyl]-3-carboxylic acid)], the “Log D7.4” value in data set [2] (pH 7.4) is given as 3.15.
As to `CC1=C[C@H](O)CC(C)(C)[C@H]1/C=C/C(C)=C/C=C/C(C)=C/C=C/C=C(C)/C=C/C=C(C)/C=C/C1=C(C)C[C@@H](O)CC1(C)C` [Lutein, lutein], the “Concentration of guest molecule measured after different incubated time” value (from here on “Concentration … after different incubated time”) was 0 ng/mL in data set [3] (0.5 h, pH 6.8 phosphate buffer); 0 ng/mL in data set [3] (3 h, pH 6.8 phosphate buffer); 0 ng/mL in data set [3] (6 h, pH 6.8 phosphate buffer). The “Concentration of the target in the solution measured after different incubation time” value (shortened to “Concentration … after different incubation time”) in data set [4] (setting [5]) was found to be 16300 ng/mL; in data set [4] (setting [6]) it was 16900 ng/mL; in data set [4] (setting [7]) it was 16000 ng/mL.
As for `COC(=O)[C@H](c1ccccc1Cl)N1CCc2sccc2C1` [Clopidogrel bisulfate], the “Concentration … after different incubated time” value in data set [3] (0.5 h, pH 4.5 acetate buffer) was 48900 ng/mL; in data set [3] (3 h, pH 4.5 acetate buffer), 39600 ng/mL; in data set [3] (6 h, pH 4.5 acetate buffer), 52000 ng/mL. The results for the “Concentration of guest molecule in solution” value (shortened to “Concentration … in solution”) in data set [3] (6 h) and in data set [4] (binary: 0.5% 103E3) were 51970 ng/mL and 64370 ng/mL, respectively. In addition, the “Times that of the initial medium” value in data set [1] (quaternary: 0.25% 204 (102M+103E3) + 0.25% 302, 310, 314 or 318, range over the systems) was 13-17 times.
For the molecule `CCCSc1nc(N[C@@H]2C[C@H]2c2ccc(F)c(F)c2)c2nnn([C@@H]3C[C@H](OCCO)[C@@H](O)[C@H]3O)c2n1` [Ticagrelor], the “Concentration … after different incubated time” value is 11700 ng/mL in data set [3] (0.5 h, 0.05% SDS in pH 6.8 phosphate buffer); 11900 ng/mL in data set [3] (3 h, 0.05% SDS in pH 6.8 phosphate buffer); 7800 ng/mL in data set [3] (6 h, 0.05% SDS in pH 6.8 phosphate buffer). The “Concentration … in solution” value in data set [3] (6 h) turned out to be 18400 ng/mL; in data set [4] (binary: 0.25% 102H), 260200 ng/mL; in data set [1] (setting [8]), 290800 ng/mL; in data set [1] (setting [9]) it was 107200 ng/mL; in data set [1] (ternary: 0.25% 102M + 0.5% 301), 394000 ng/mL; in data set [1] (ternary: 102M + 318), 253700 ng/mL. Further, the “Concentration … after different incubation time” value in data set [4] (binary system with 0.5% polymer 101, incubation 0.5 h) is 132500 ng/mL; in data set [4] (binary system with 0.5% polymer 101, incubation 3 h) it was 47200 ng/mL; in data set [4] (binary system with 0.5% polymer 101, incubation 6 h) it was 46600 ng/mL; in data set [4] (setting [5]) it was 169800 ng/mL; in data set [4] (setting [6]), 166000 ng/mL; in data set [4] (setting [7]), 161400 ng/mL. Also, the “Concentration … after different incubation time” value in data set [4] (binary system with 0.5% polymer 103, incubation 0.5 h) amounted to 19200 ng/mL; in data set [4] (binary system with 0.5% polymer 103, incubation 3 h) it was 20400 ng/mL; in data set [4] (binary system with 0.5% polymer 103, incubation 6 h) it was 17500 ng/mL; in data set [4] (binary system with 0.5% polymer 104, incubation 0.5 h), 11900 ng/mL; in data set [4] (binary system with 0.5% polymer 104, incubation 3 h), 9400 ng/mL; in data set [4] (binary system with 0.5% polymer 104, incubation 6 h), 9100 ng/mL. In addition, the “Concentration … after different incubation time” value is 16800 ng/mL in data set [4] (binary system with 0.5% polymer 106, incubation 0.5 h); 17400 ng/mL in data set [4] (binary system with 0.5% polymer 106, incubation 3 h); 17300 ng/mL in data set [4] (binary system with 0.5% polymer 106, incubation 6 h); 48300 ng/mL in data set [4] (binary system with 0.5% polymer 107, incubation 0.5 h); 52100 ng/mL in data set [4] (binary system with 0.5% polymer 107, incubation 3 h); 45500 ng/mL in data set [4] (binary system with 0.5% polymer 107, incubation 6 h). Further, the “Concentration … after different incubation time” value in data set [4] (binary system with 0.5% polymer 110, incubation 0.5 h) was 17000 ng/mL; in data set [4] (binary system with 0.5% polymer 110, incubation 3 h), 19200 ng/mL; in data set [4] (binary system with 0.5% polymer 110, incubation 6 h) it was 19100 ng/mL. For the same molecule, the “Times that of the initial medium” value in data set [4] (binary: 0.25% 102H) was “approximately 14 times”; in data set [4] (binary: 0.25% 102M), “about 6 times”; in data set [1] (setting [8]), 26 times; in data set [1] (setting [9]) it was 9.7 times; in data set [1] (ternary: 0.25% 102M + 0.5% 301), 35 times; in data set [1] (ternary: 102M + 310, 312 or 313) it was 29 times.
As to `O=C1[C@@H]2[C@H]3CC[C@H](C3)[C@@H]2C(=O)N1C[C@@H]1CCCC[C@H]1CN1CCN(c2nsc3ccccc23)CC1` [Lurasidone hydrochloride], the “Concentration … after different incubated time” value in data set [3] (0.5 h, pH 6.8 phosphate buffer) turned out to be 7300 ng/mL; in data set [3] (3 h, pH 6.8 phosphate buffer) it was 10700 ng/mL; in data set [3] (6 h, pH 6.8 phosphate buffer), 3200 ng/mL. The “Concentration … in solution” value was determined as 32400 ng/mL in data set [4] (binary: 0.25% 101); 84400 ng/mL in data set [4] (binary: 0.25% 102H); 71500 ng/mL in data set [1] (binary: 0.25% 312); 56600 ng/mL in data set [1] (binary: 0.25% 314); 198800 ng/mL in data set [1] (binary: 0.5% 314); 2300 ng/mL in data set [1] (binary: 0.5% 319). Besides, the “Concentration … in solution” value in data set [1] (ternary: 0.25% 102H + 312, carrier % not stated) was 122100 ng/mL; in data set [1] (ternary: 0.25% 319 + 0.25% 101), 11200 ng/mL; in data set [1] (ternary: 102H + 310, carrier % not stated), 204900 ng/mL; in data set [1] (ternary: 102H + 313, carrier % not given), 135700 ng/mL; in data set [1] (ternary: 102H + 318, carrier % not stated), 141800 ng/mL. Moreover, the “Times that of the initial medium” value in data set [1] (binary: 0.25% 314) is given as 81 times; in data set [1] (binary: 0.5% 314), 284 times.
